{"source": "patent US5236904A", "about": "“Erection-inducing methods and compositions” (Senetek, plc, priority 1989, dated 1993)", "key": {"human males [1]": {"tested_on": "human males", "conditions": "cited from earlier work; for priapism: treatment of impotence"}, "[2]": {"tested_on": "males with psychogenic or neurogenic dysfunction, severe atherosclerosis not involved", "conditions": "cited from earlier work; for erection on intracavernosal injection: severe atherosclerosis not involved"}, "[3]": {"tested_on": "males who are impotent due to severe atherosclerosis", "conditions": "cited from earlier work; for efficacy in impotence due to severe atherosclerosis: in vivo"}, "[4]": {"conditions": "aqueous composition; cited from earlier work"}, "normal male": {"tested_on": "normal male", "conditions": "cited from earlier work"}, "human males [5]": {"tested_on": "human males", "conditions": "in vivo", "procedure": "Priapism is a serious, deleterious side effect of treatment of erectile insufficiency with these drugs. Beyond the embarrassment that may be caused for some men, priapism is usually painful, irreversibly damages erectile tissue, and, to be relieved, requires bleeding or pharmacological intervention (e.g., injection of a sympathomimetic drug such as adrenaline).\nPreferably 1 ml of the preferred composition is administered as a bolus by injection into a corpus cavernosum while the penis is constricted at its base with a tourniquet. About 5-10 minutes after the injection, the tourniquet is released and, if not already started before the tourniquet is released, sexual stimulation is begun."}, "[6]": {"tested_on": "human suffering from impotence, of which severe atherosclerosis is a cause", "experiment": "Intracavernosal injection coupled with sexual stimulation in males with impotence caused by severe atherosclerosis", "type": "in vivo", "method": "Thus, between about 0.1 ml and about 5 ml, and preferably about 1 ml, of a physiologically acceptable composition comprising one of VIP or PHM or a mixture thereof and an alpha-adrenergic blocker is administered as a bolus by intracavernosal injection during, or prior to the initiation of, sexual stimulation and preferably with the penis constricted at its base for between about 1 minute and about 15 minutes (preferably about 5 minutes-about 10 minutes) after the injection."}}, "note": "Entries after “also recorded” stand apart in the source; their conditions may differ."}
{"compound": "COc1ccc(Cc2nccc3cc(OC)c(OC)cc23)cc1OC", "note": "[papaverine]", "values": [{"measurement": "pain after injection", "setting": "human males [1]; even if priapism does not occur", "result": "painful, burning sensation in the first two or so minutes after the injection"}, {"measurement": "fibrosis", "setting": "human males [1]; repeated use", "result": "undesirable, extensive intracavernous fibrosis"}, {"measurement": "priapism", "setting": "human males [1]", "result": "often results in priapism"}, {"measurement": "erection on intracavernosal injection", "setting": "[2]", "result": "cause an erection sufficient for vaginal penetration"}, {"measurement": "efficacy in impotence due to severe atherosclerosis", "setting": "[3]", "result": "ineffective; also recorded: not susceptible to treatment"}]}
{"compound": "CC(COc1ccccc1)N(CCCl)Cc1ccccc1", "note": "(centres unmarked) [phenoxybenzamine]", "values": [{"measurement": "priapism", "setting": "human males [1]", "result": "often results in priapism"}, {"measurement": "erection on intracavernosal injection", "setting": "[2]", "result": "cause an erection sufficient for vaginal penetration"}, {"measurement": "efficacy in impotence due to severe atherosclerosis", "setting": "[3]", "result": "not susceptible to treatment"}]}
{"compound": "Cc1ccc(N(CC2=NCCN2)c2cccc(O)c2)cc1", "note": "[phentolamine]", "values": [{"measurement": "duration of erection", "setting": "[2]; compared with papaverine or phenoxybenzamine", "result": "significantly shorter duration"}, {"measurement": "erection on intracavernosal injection", "setting": "[2]", "result": "causes an erection sufficient for vaginal penetration"}, {"measurement": "efficacy in impotence due to severe atherosclerosis", "setting": "[3]", "result": "not susceptible to treatment"}, {"measurement": "stability in solution", "setting": "[4]", "result": "lability"}]}
{"compound": "human vasoactive intestinal peptide [VIP]", "values": [{"measurement": "erectile response with sexual stimulation", "setting": "normal male; as little as 1 μg (at 1 μg/ml of diluent), visual and/or vibration stimulation", "result": "facilitates full erection"}, {"measurement": "erectile response without sexual stimulation", "setting": "normal male; up to 20 μg (at 20 μg/ml of diluent), no sexual stimulation", "result": "only slight swelling (slight tumescence) of the penis but not an erection"}, {"measurement": "systemic side effects due to administration", "setting": "human males [1]; background statement", "result": "flushing of the skin and hypotension"}, {"measurement": "priapism or burning pain on induction of an erection", "setting": "human males [5]", "result": "does not entail priapism or the burning pain"}, {"measurement": "induction of erections, VIP alone coupled with sexual stimulation", "setting": "[3]; impotent due to severe atherosclerosis", "result": "does not induce erections"}, {"measurement": "erection sufficient for vaginal penetration", "setting": "[6]; 30 μg neuropeptide together with alpha-adrenergic blocker, in most cases", "result": "sufficient to induce an erection sufficient for vaginal penetration"}, {"measurement": "treatment of impotence, neuropeptide in combination with an alpha-adrenergic blocker", "setting": "[6]; intracavernosal injection with alpha-adrenergic blocker such as phentolamine or prazosin, coupled with sexual stimulation", "result": "treated effectively"}, {"measurement": "induction of erections, neuropeptide alone", "setting": "[6]; without alpha-adrenergic blocker", "result": "not effective"}]}
